In US10072006B2 (MUTABILIS, priority 2015, dated 2018):

Columns and labels:
[1] = test system: P. aeruginosa UFR90 (Derepressed ampC, OprD-); assay: MIC of compounds and synergy with ceftazidime (broth microdilution); type: cell-based
Outline: (§1)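 MICs were scored by eye after 16-20 h at 35° C (ambient air), using compounds spotted from DMSO.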

[2] = test system: P. aeruginosa UFR47 (VIM-1); assay: as above; type: cell-based; conditions: strain UFR47 (P. aeruginosa); for MIC: Pseudomonas aeruginosa, 18 h, read-out: MIC compounds of the invention alone
Outline: (§2)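 First, test compounds prepared in DMSO are spotted on sterile plates. Next, plates incubate at 35° C under ambient air for 16-20 h. Finally, wells are inspected by eye, and the lowest concentration without growth gives the MIC.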

[3] = test system: K. pneumoniae UFR24 (TEM-1, SHV-2, SHV-11, OXA-1, OXA-48, OXA-47); assay: as above; type: cell-based; conditions: strain UFR24 (K. pneumoniae); for MIC: Klebsiella pneumoniae, 18 h, read-out: MIC compounds of the invention alone; for MIC, combination of CAZ and compounds of the invention: MIC of ceftazidime with compound fixed at 4 μg/mL
Outline: as §1

[4] = test system: E. coli UFR61O (TEM-1, KPC-2); assay: as above; type: cell-based; conditions: for MIC: Escherichia coli, strain UFR61O (E. coli), read-out: MIC compounds of the invention alone; for MIC, combination of CAZ and compounds of the invention: MIC of ceftazidime with compound fixed at 4 μg/mL, strain UFR610 (E. coli)
Outline: as §2

[5] = test system: E. coli UFR74 (SHV-1, DHA-1); assay: as above; type: cell-based; conditions: strain UFR74 (E. coli); for MIC: Escherichia coli, 18 h, read-out: MIC compounds of the invention alone; for MIC, combination of CAZ and compounds of the invention: MIC of ceftazidime with compound fixed at 4 μg/mL
Outline: as §1

[6] = test system: E. coli 131119 (TEM-1, OXA-48); assay: as above; type: cell-based; conditions: strain 131119 (E. coli); for MIC: Escherichia coli, 18 h, read-out: MIC compounds of the invention alone; for MIC, combination of CAZ and compounds of the invention: MIC of ceftazidime with compound fixed at 4 μg/mL
Outline: as §1

[7] = test system: P. aeruginosa UFR92 (Derepressed ampC, OprD-); assay: as above; type: cell-based; conditions: MIC of ceftazidime with compound fixed at 4 μg/mL; strain UFR92 (P. aeruginosa)
Outline: as §2

[8] = test system: E. coli UFR18 (CTX-M-15, OXA-204); assay: as above; type: cell-based; conditions: strain UFR18 (E. coli); for MIC: Escherichia coli, 18 h, read-out: MIC compounds of the invention alone; for MIC, combination of CAZ and compounds of the invention: MIC of ceftazidime with compound fixed at 4 μg/mL
Outline: as §1

[9] = test system: P. aeruginosa UFR93 (Derepressed ampC, OprD-, MexAB+, MexXY+); assay: as above; type: cell-based; conditions: for MIC: Pseudomonas aeruginosa, 18 h, read-out: MIC compounds of the invention alone
Outline: as §1

[10] = test system: C. murliniae 210102 (VIM-4); assay: as above; type: cell-based; conditions: strain 210102 (C. murliniae); for MIC: 18 h, read-out: MIC compounds of the invention alone; for MIC, combination of CAZ and compounds of the invention: MIC of ceftazidime with compound fixed at 4 μg/mL
Outline: as §1

[11] = test system: E. coli UFR52 (TEM-1, SHV-12, IMP-8); assay: as above; type: cell-based; conditions: strain UFR52 (E. coli); for MIC: Escherichia coli, 18 h, read-out: MIC compounds of the invention alone; for MIC, combination of CAZ and compounds of the invention: MIC of ceftazidime with compound fixed at 4 μg/mL
Outline: as §1

[12] = test system: P. aeruginosa UFR59 (IMP-29); assay: as above; type: cell-based; conditions: strain UFR59 (P. aeruginosa); for MIC: Pseudomonas aeruginosa, 18 h, read-out: MIC compounds of the invention alone
Outline: as §1

[13] = test system: P. aeruginosa UFR35 (OXA-23); assay: as above; type: cell-based; conditions: strain UFR35 (P. aeruginosa); for MIC: Pseudomonas aeruginosa, 18 h, read-out: MIC compounds of the invention alone
Outline: as §1

AmpC (PAE) = AmpC (PAE) (Pseudomonas aeruginosa, UniProt P24735); assay: biochemical
KPC-2 = molecular target: T1, KPC-2 (Klebsiella pneumoniae, UniProt Q9F663); assay: β-lactamase inhibitory activity, determination of IC50 (nitrocefin hydrolysis); type: biochemical
T1 construct: made in house; host or cells: E. coli

OXA-15 = molecular target: T2, OXA-15 (Pseudomonas aeruginosa, UniProt Q51574); assay: as above; type: biochemical
T2 construct: made in house; host or cells: E. coli

[14] = MIC of ceftazidime with compound fixed at 4 μg/mL

T1 sequence (Q9F663 25-293 limits assumed): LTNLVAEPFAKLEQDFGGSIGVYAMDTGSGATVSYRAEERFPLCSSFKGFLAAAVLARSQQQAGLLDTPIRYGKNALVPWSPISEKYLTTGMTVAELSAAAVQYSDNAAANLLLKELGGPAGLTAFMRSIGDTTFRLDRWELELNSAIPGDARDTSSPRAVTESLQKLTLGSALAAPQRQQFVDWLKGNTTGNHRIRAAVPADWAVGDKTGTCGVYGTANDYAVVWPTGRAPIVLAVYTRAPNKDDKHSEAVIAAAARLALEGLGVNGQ
T2 sequence (Q51574 22-275): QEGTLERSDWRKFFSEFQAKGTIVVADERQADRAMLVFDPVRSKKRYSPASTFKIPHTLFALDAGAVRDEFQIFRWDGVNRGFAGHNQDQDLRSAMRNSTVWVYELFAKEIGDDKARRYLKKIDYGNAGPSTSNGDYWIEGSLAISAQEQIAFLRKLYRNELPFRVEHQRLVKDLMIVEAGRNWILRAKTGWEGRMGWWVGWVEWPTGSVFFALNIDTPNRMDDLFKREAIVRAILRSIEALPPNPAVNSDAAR
AmpC (PAE), sequence (P24735 27-397): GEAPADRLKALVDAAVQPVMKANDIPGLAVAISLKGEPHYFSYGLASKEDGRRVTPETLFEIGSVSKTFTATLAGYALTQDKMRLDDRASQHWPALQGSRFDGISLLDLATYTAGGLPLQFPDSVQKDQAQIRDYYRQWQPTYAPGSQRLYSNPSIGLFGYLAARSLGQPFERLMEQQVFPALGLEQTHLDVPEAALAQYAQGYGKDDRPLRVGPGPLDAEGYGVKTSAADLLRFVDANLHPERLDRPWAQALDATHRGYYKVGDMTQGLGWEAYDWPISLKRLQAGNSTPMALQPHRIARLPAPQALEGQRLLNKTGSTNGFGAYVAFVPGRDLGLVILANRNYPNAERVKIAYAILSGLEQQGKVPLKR

Row | Structure (SMILES) | MIC [2] [µg/mL] | MIC [3] [µg/mL] | MIC, combination of CAZ and compounds of the invention [3] [µg/mL] | MIC [4] [µg/mL] | MIC, combination of CAZ and compounds of the invention [4] [µg/mL] | MIC [5] [µg/mL] | MIC, combination of CAZ and compounds of the invention [5] [µg/mL] | MIC [6] [µg/mL] | MIC, combination of CAZ and compounds of the invention [6] [µg/mL] | MIC [8] [µg/mL] | MIC, combination of CAZ and compounds of the invention [8] [µg/mL] | MIC [9] [µg/mL] | MIC [10] [µg/mL] | MIC, combination of CAZ and compounds of the invention [10] [µg/mL] | MIC [11] [µg/mL] | MIC, combination of CAZ and compounds of the invention [11] [µg/mL] | MIC [12] [µg/mL] | MIC [13] [µg/mL] | IC50 (AmpC (PAE)) [nM] | IC50 (KPC-2) [nM] | also measured
1 | NC[C@@H]1C(c2nccs2)=C[C@@H]2CN1C(=O)N2OS(=O)(=O)[O-].O=C(O)C(F)(F)F.[Na+] [Example 2, Sodium and 2,2,2-trifluoroacetate [(2S,5R)-2-(azaniumylmethyl)-7-oxo-3-thiazol-2-yl-1,6-diazabicyclo[3.2.1]oct-3-en-6-yl] sulfate] | 2 | > 32 | 0.25 | 0.031 | <0.25 | 16 | ≤0.125 | ≤ 0.016 | <0.25 | ≤ 0.016 | <0.25 | 4 | 4 | ≤0.125 | 4 | <0.25 | 8 | 2 | 110 | 3.9 | MIC, combination of CAZ and compounds of the invention ([1]; MIC of ceftazidime with compound fixed at 4 μg/mL, strain UFR90 (P. aeruginosa)): <0.25 µg/mL; MIC ([1]; Pseudomonas aeruginosa, 18 h, read-out: MIC compounds of the invention alone): 1 µg/mL; MIC, combination of CAZ and compounds of the invention [2, 14]: <0.25 µg/mL; MIC, combination of CAZ and compounds of the invention [7]: <0.25 µg/mL; MIC, combination of CAZ and compounds of the invention ([9]; MIC of ceftazidime with compound fixed at 4 μg/mL, strain UFR93 (P. aeruginosa)): <0.25 µg/mL; MIC, combination of CAZ and compounds of the invention [12, 14]: <0.25 µg/mL; MIC, combination of CAZ and compounds of the invention [13, 14]: <0.25 µg/mL; IC50 (OXA-15): 0.84 nM
2 | NC[C@@H]1C(c2ncco2)=C[C@@H]2CN1C(=O)N2OS(=O)(=O)[O-].O=C(O)C(F)(F)F.[Na+] [Example 5, Sodium and 2,2,2-trifluoroacetate [(2S,5R)-2-(azaniumylmethyl)-7-oxo-3-oxazol-2-yl-1,6-diazabicyclo[3.2.1]oct-3-en-6-yl] sulfate] | 1 | > 32 | <0.25 | 0.5 | <0.25 | 16 | <0.25 | 0.063 | <0.25 | ≤ 0.016 | <0.25 | 4 | 4 | <0.25 | 4 | <0.25 | 2 | 0.25 | 12000 | 1800 | IC50 (OXA-15): 8 nM
